# Legend:
# [1] = PGR activity of separated enantiomers (test not specified); conditions: (R)- versus (S)-enantiomer of compound 146
# [2] = tested on: grape seedlings cultivar (cv.) Gutedel; assay: Plant growth regulation effects on grape seedlings; format: in vivo; conditions: 200 ppm, spray chamber, 8 days at 22° C. and 80% r.h.
# Protocol: Five weeks old grape seedlings cultivar (cv.) Gutedel were treated with the formulated test compound in a spray chamber. After an incubation period of 8 days at 22° C. and 80% relative humidity (r.h.) in a greenhouse, the plant growth regulating effects were assessed.
# [3] = tested on: Septoria tritici; assay: Fungal growth inhibition in nutrient broth, microtiter plate, photometric; format: cell-based; conditions: 200 ppm, 24° C., 72 hours
# Protocol: (§1) Septoria tritici (leaf blotch): Conidia of the fungus from cryogenic storage were directly mixed into nutrient broth (PDB potato dextrose broth). After placing a (DMSO) solution of the test compounds into a microtiter plate (96-well format) the nutrient broth containing the fungal spores was added. The test plates were incubated at 24° C. and the inhibition of growth was determined photometrically after 72 hours. Compound (S)-(146) gave at least 80% control of Septoria tritici at 200 ppm.
# [4] = tested on: Mycosphaerella arachidis; assay: as above; format: cell-based, Mycosphaerella arachidis (syn. Cercospora arachidicola); conditions: 200 ppm, 24° C., 72 hours, 620 nm
# Protocol: as §1, with “Mycosphaerella arachidis (syn. Cercospora arachidicola), Brown leaf spot of groundnut (peanut):” for “Septoria tritici (leaf blotch):”, “hours at 620 nm.” for “hours.”, “Mycosphaerella arachidis” for “Septoria tritici”
# [5] = tested on: Monographella nivalis; assay: as above; format: cell-based; conditions: 200 ppm, 24° C., 72 hours, 620 nm
# Protocol: as §1, with “Monographella nivalis (syn. Microdochium nivale, Fusarium nivale), snow mould, foot rot of cereals:” for “Septoria tritici (leaf blotch):”, “hours at 620 nm.” for “hours.”, “Monographella nivalis” for “Septoria tritici”
# [6] = tested on: Fusarium culmorum; assay: as above; format: cell-based; conditions: 200 ppm, 24° C., 48 hours
# Protocol: as §1, with “Fusarium culmorum (root rot):” for “Septoria tritici (leaf blotch):”, “48” for “72”, “Fusarium culmorum” for “Septoria tritici”
# [7] = tested on: Botrytis cinerea; assay: as above; format: cell-based; conditions: 200 ppm, 24° C., 72 hours
# Protocol: as §1, with “Botrytis cinerea (Gray mould):” for “Septoria tritici (leaf blotch):”, “Botrytis cinerea” for “Septoria tritici”
# [8] = tested on: Rhizoctonia solani; assay: as above; format: cell-based; conditions: 200 ppm, 24° C., 48 h
# Protocol: as §1, with “Rhizoctonia solani (foot rot, damping-off): Mycelial fragments” for “Septoria tritici (leaf blotch): Conidia”, “fungus, prepared” for “fungus”, “a fresh liquid culture,” for “cryogenic storage”, “mycelium” for “spores”, “48 h.” for “72 hours.”, “Rhizoctonia solani” for “Septoria tritici”
# [9] = tested on: summer wheat; assay: Plant growth effects on cereals: spray at beginning of stem elongation, visual growth reduction; format: in vivo; conditions: 225 g a.i./ha spray, 28 days after spray, visually evaluated versus untreated control
# From the text: (§2) Plants of winter wheat and summer wheat were sprayed at the beginning of stem elongation, three weeks after sowing. Formulated test compounds 144, 145 and 146 were sprayed at 225 g a.i. (active ingredient)/ha, each, top over leaf with a boom sprayer on the plants. After the spray the plants were transferred to a greenhouse and 28 days after the spray the plant growth reduction was visually evaluated versus an untreated control.
# [10] = tested on: winter wheat; assay: as above; format: in vivo; conditions: 225 g a.i./ha spray, 28 days after spray, visually evaluated versus untreated control
# From the text: as §2
# [11] = tested on: wheat plants cultivar (cv.). Riband; assay: Plant growth regulation effects on wheat plants; format: in vivo; conditions: 200 ppm, spray chamber, 8 days at 22° C. and 80% r.h.
# Protocol: Two weeks old wheat plants cultivar (cv.). Riband were treated with the formulated test compound in a spray chamber. After an incubation period of 8 days at 22° C. and 80% relative humidity (r.h.) in a greenhouse, the plant growth regulating effects were assessed.
structure (smiles),measurement,setting,value
"O[C@H](c1cccnc1)c1c(-c2ccc(Cl)cc2F)noc1-c1ccc(F)cc1F (single isomer, unassigned) [Compound 153]","PGR activity, enantiomer comparison",[1],majority of PGR activity
same,plant growth regulating effect (plant height),[2],plant height decreased
"O[C@@H](c1cccnc1)c1c(-c2ccc(Cl)cc2F)noc1-c1ccc(F)cc1F (single isomer, unassigned) [Compound (S)-(146)]",control of Septoria tritici,[3],at least 80%
same,control of Mycosphaerella arachidis,[4],at least 80%
same,control of Monographella nivalis,[5],at least 80%
same,control of Fusarium culmorum,[6],at least 80%
same,control of Botrytis cinerea,[7],at least 80%
same,control of Rhizoctonia solani,[8],at least 80%
OC(c1cncnc1)c1c(-c2ccc(Cl)cc2F)noc1-c1ccc(F)cc1F (stereo not drawn) [Compound 144],Summer Wheat % reduction (plant growth reduction),[9],10%
same,Winter Wheat % reduction (plant growth reduction),[10],7.5%
same,plant growth regulating effect (plant height),[2],plant height decreased
same,plant growth regulating effect (plant height),[11],plant height decreased
OC(c1cncnc1)c1c(-c2ccc(Cl)cc2)noc1-c1ccc(F)cc1F (stereo not drawn) [Compound 145],Summer Wheat % reduction (plant growth reduction),[9],17.5%
same,Winter Wheat % reduction (plant growth reduction),[10],5%
same,plant growth regulating effect (plant height),[2],plant height decreased
"OC(c1cccnc1)c1c(-c2ccc(Cl)cc2F)noc1-c1ccc(F)cc1F (stereo not drawn) [Compound 146, 3-(2-Fluoro-4-Chlorophenyl)-5-(2,4-difluorophenyl)-4-[(3-pyridyl)hydroxymethyl]-isoxazole]",Summer Wheat % reduction (plant growth reduction),[9],10%
same,Winter Wheat % reduction (plant growth reduction),[10],10%
same,melting point,,138 to 140 °C
"OC(c1cncnc1)c1c(-c2ccc(Cl)cc2Cl)noc1-c1ccccc1Cl (stereo not drawn) [Compound 147, 3-(2,4-Chlorophenyl)-5-(2-Chlorophenyl)-4-[(3-pyrimidyl)hydroxymethyl]-isoxazole]",plant growth regulating effect (plant height),[2],plant height decreased
"OC(c1cncnc1)c1c(-c2ccc(Cl)cc2F)noc1-c1ccccc1Cl (stereo not drawn) [Compound 148, 3-(2-Fluoro-4-Chlorophenyl)-5-(2-Chlorophenyl)-4-[(3-pyrimidyl)hydroxymethyl]-isoxazole]",plant growth regulating effect (plant height),[2],plant height decreased
"COc1ncccc1-c1onc(-c2ccc(Cl)cc2)c1C(O)c1cncnc1 (stereo not drawn) [Compound 149, 3-(4-Chlorophenyl)-5-(2-Methoxypyridine)-4-[(3-pyrimidyl)hydroxymethyl]-isoxazole]",plant growth regulating effect (plant height),[2],plant height decreased
"OC(c1cncnc1)c1c(-c2ccc(Cl)cc2)noc1-c1ccc(F)cc1 (stereo not drawn) [Compound 150, 3-(4-Chlorophenyl)-5-(4-Fluorophenyl)-4-[(3-pyrimidyl)hydroxymethyl]-isoxazole]",plant growth regulating effect (plant height),[2],plant height decreased
"OC(c1cncnc1)c1c(-c2ccc(Cl)cc2)noc1-c1ccc(F)cc1F (stereo not drawn) [Compound 151, 3-(4-Chlorophenyl)-5-(2,4-Fluorophenyl)-4-[(3-pyrimidyl)hydroxymethyl]-isoxazole]",plant growth regulating effect (plant height),[2],plant height decreased
"OC(c1cccnc1)c1c(-c2ccc(F)cc2F)noc1-c1ccc(F)cc1Cl (stereo not drawn) [Compound 152, 3-(2,4-Diluoro)-5-(2-Chloro-4-Fluorophenyl)-4-[(3-pyridyl)hydroxymethyl]-isoxazole]",plant growth regulating effect (plant height),[2],plant height decreased
